Source: patent US11098038B2, “Imidazole-based anticancer agents and derivatives thereof, and methods of making and using same” (The University of Toledo, priority 2017, dated 2021)

Assays:
T-47D = experiment: NCI 60 screen, T-47D; format: cell-based; conditions: Homo sapiens, T47D, Breast
Procedure: (§1) The compounds synthesized were tested at the National Cancer Institute (NCI) for anti-proliferative activity in the 60 human tumor cell line assay.

DU-145 = experiment: NCI 60 screen, DU-145; format: cell-based; conditions: Homo sapiens, Prostatic
Procedure: as §1

HS 578T = experiment: NCI 60 screen, HS 578T; format: cell-based; conditions: Homo sapiens, Breast
Procedure: as §1

A498 = experiment: NCI 60 screen, A498; format: cell-based; conditions: Homo sapiens, Renal
Procedure: as §1

MALME-3M = experiment: NCI 60 screen, MALME-3M; format: cell-based; conditions: Homo sapiens, Melanoma
Procedure: as §1

SF-295 = experiment: NCI 60 screen, SF-295; format: cell-based; conditions: Homo sapiens, CNS
Procedure: as §1

NCI-460 = experiment: NCI 60 screen, NCI-460; format: cell-based; conditions: Homo sapiens, Non-Small Cell Lung
Procedure: as §1

PC-3 = experiment: NCI 60 screen, PC-3; format: cell-based; conditions: Homo sapiens, Prostatic
Procedure: as §1

NCI-H226 = experiment: NCI 60 screen, NCI-H226; format: cell-based; conditions: Homo sapiens, Non-Small Cell Lung
Procedure: as §1

HCT-116 = experiment: NCI 60 screen, HCT-116; format: cell-based; conditions: Homo sapiens, Colon
Procedure: as §1

HOP-92 = experiment: NCI 60 screen, HOP-92; format: cell-based; conditions: Homo sapiens, Non-Small Cell Lung
Procedure: as §1

MDA-MB-468 = experiment: NCI 60 screen, MDA-MB-468; format: cell-based; conditions: Homo sapiens, Breast
Procedure: as §1

UACC-257 = experiment: NCI 60 screen, UACC-257; format: cell-based; conditions: Homo sapiens, Melanoma
Procedure: as §1

SK-MEL-2 [1] = experiment: NCI 60 screen, SK-MEL-2 (second line); format: cell-based; conditions: Homo sapiens; Melanoma, SK-MEL-2 (second of two lines so named, r38)
Procedure: as §1

SR = experiment: NCI 60 screen, SR; format: cell-based; conditions: Homo sapiens, Leukemia
Procedure: as §1

OVCAR-5 = experiment: NCI 60 screen, OVCAR-5; format: cell-based; conditions: Homo sapiens, Ovarian
Procedure: as §1

EKVX = experiment: NCI 60 screen, EKVX; format: cell-based; conditions: Homo sapiens, Non-Small Cell Lung
Procedure: as §1

OVCAR-4 = experiment: NCI 60 screen, OVCAR-4; format: cell-based; conditions: Homo sapiens, Ovarian
Procedure: as §1

BT-549 = experiment: NCI 60 screen, BT-549; format: cell-based; conditions: Homo sapiens, Breast
Procedure: as §1

NCI-322M = experiment: NCI 60 screen, NCI-322M; format: cell-based; conditions: Homo sapiens, Non-Small Cell Lung
Procedure: as §1

MDA-MB-435 = experiment: NCI 60 screen, MDA-MB-435; format: cell-based; conditions: Homo sapiens, Melanoma
Procedure: as §1

LOX IMVI = experiment: NCI 60 screen, LOX IMVI; format: cell-based; conditions: Homo sapiens, Melanoma
Procedure: as §1

NCI-H23 = experiment: NCI 60 screen, NCI-H23; format: cell-based; conditions: Homo sapiens, Non-Small Cell Lung
Procedure: as §1

COLO 205 = experiment: NCI 60 screen, COLO 205; format: cell-based; conditions: Homo sapiens, Colon
Procedure: as §1

SF-539 = experiment: NCI 60 screen, SF-539; format: cell-based; conditions: Homo sapiens, CNS
Procedure: as §1

CCRF-CEM = experiment: NCI 60 screen, CCRF-CEM; format: cell-based; conditions: Homo sapiens, Leukemia
Procedure: as §1

OVCAR-3 = experiment: NCI 60 screen, OVCAR-3; format: cell-based; conditions: Homo sapiens, Ovarian
Procedure: as §1

RXF393 = experiment: NCI 60 screen, RXF393; format: cell-based; conditions: Homo sapiens, RXF 393, Renal
Procedure: as §1

UO-31 = experiment: NCI 60 screen, UO-31; format: cell-based; conditions: Homo sapiens, Renal
Procedure: as §1

NCI-H522 = experiment: NCI 60 screen, NCI-H522; format: cell-based; conditions: Homo sapiens, Non-Small Cell Lung
Procedure: as §1

UACC-62 = experiment: NCI 60 screen, UACC-62; format: cell-based; conditions: Homo sapiens, Melanoma
Procedure: as §1

SN12C = experiment: NCI 60 screen, SN12C; format: cell-based; conditions: Homo sapiens, Renal
Procedure: as §1

KM12 = experiment: NCI 60 screen, KM12; format: cell-based; conditions: Homo sapiens, Colon
Procedure: as §1

HL-60(TB) = experiment: NCI 60 screen, HL-60(TB); format: cell-based; conditions: Homo sapiens, Leukemia
Procedure: as §1

NCI/ADR-RES = experiment: NCI 60 screen, NCI/ADR-RES; format: cell-based; conditions: Homo sapiens, Ovarian
Procedure: as §1

MOLT-4 = experiment: NCI 60 screen, MOLT-4; format: cell-based; conditions: Homo sapiens, Leukemia
Procedure: as §1

RPMI-8226 = experiment: NCI 60 screen, RPMI-8226; format: cell-based; conditions: Homo sapiens, Leukemia
Procedure: as §1

HOP-62 = experiment: NCI 60 screen, HOP-62; format: cell-based; conditions: Homo sapiens, Non-Small Cell Lung
Procedure: as §1

SF-268 = experiment: NCI 60 screen, SF-268; format: cell-based; conditions: Homo sapiens, CNS
Procedure: as §1

SK-OV-3 = experiment: NCI 60 screen, SK-OV-3; format: cell-based; conditions: Homo sapiens, Ovarian
Procedure: as §1

HCC-2998 = experiment: NCI 60 screen, HCC-2998; format: cell-based; conditions: Homo sapiens, Colon
Procedure: as §1

A549/ATCC = experiment: NCI 60 screen, A549/ATCC; format: cell-based; conditions: Homo sapiens, Non-Small Cell Lung
Procedure: as §1

MDA-MB-231/ATCC = experiment: NCI 60 screen, MDA-MB-231/ATCC; format: cell-based; conditions: Homo sapiens, Breast
Procedure: as §1

SK-MEL-5 = experiment: NCI 60 screen, SK-MEL-5; format: cell-based; conditions: Homo sapiens, Melanoma
Procedure: as §1

M14 = experiment: NCI 60 screen, M14; format: cell-based; conditions: Homo sapiens, Melanoma
Procedure: as §1

TK-10 = experiment: NCI 60 screen, TK-10; format: cell-based; conditions: Homo sapiens, Renal
Procedure: as §1

HCT15 = experiment: NCI 60 screen, HCT15; format: cell-based; conditions: Homo sapiens, HCT-15, Colon
Procedure: as §1

U251 = experiment: NCI 60 screen, U251; format: cell-based; conditions: Homo sapiens, U-251, CNS
Procedure: as §1

ACHN = experiment: NCI 60 screen, ACHN; format: cell-based; conditions: Homo sapiens, Renal
Procedure: as §1

SNB-19 = experiment: NCI 60 screen, SNB-19; format: cell-based; conditions: Homo sapiens, CNS
Procedure: as §1

CAKI-1 = experiment: NCI 60 screen, CAKI-1; format: cell-based; conditions: Homo sapiens, Renal
Procedure: as §1

K-562 = experiment: NCI 60 screen, K-562; format: cell-based; conditions: Homo sapiens, K562, Leukemia
Procedure: as §1

SNB-75 = experiment: NCI 60 screen, SNB-75; format: cell-based; conditions: Homo sapiens, CNS
Procedure: as §1

HT29 = experiment: NCI 60 screen, HT29; format: cell-based; conditions: Homo sapiens, HT-29, Colon
Procedure: as §1

786-0 = experiment: NCI 60 screen, 786-0; format: cell-based; conditions: Homo sapiens, Renal
Procedure: as §1

OVCAR-8 = experiment: NCI 60 screen, OVCAR-8; format: cell-based; conditions: Homo sapiens, Ovarian
Procedure: as §1

SW-620 = experiment: NCI 60 screen, SW-620; format: cell-based; conditions: Homo sapiens, Colon
Procedure: as §1

IGROV1 = experiment: NCI 60 screen, IGROV1; format: cell-based; conditions: Homo sapiens, IGROV-1, Ovarian
Procedure: as §1

MCF7 = experiment: NCI 60 screen, MCF7; format: cell-based; conditions: Homo sapiens, Breast
Procedure: as §1

SK-MEL-2 [2] = experiment: NCI 60 screen, SK-MEL-2 (first line); format: cell-based; conditions: Homo sapiens; Melanoma, SK-MEL-2 (first of two lines so named, r37)
Procedure: as §1

SMILES: O=C(Cc1ccc(/C=C/C(=O)c2ncc[nH]2)cc1)Nc1ccc(C(F)(F)F)cc1 [Compound 24, (E)-2-(4-(3-(1H-imidazole-2-yl)-3-oxoprop-1-en-1-yl)phenyl)-N-(4-(trifluoromethyl)phenyl) acetamide]
- GI50 (T-47D): 3.97 µM
- melting point: 240.5 °C
- GI50 (DU-145): 2.13 µM
- GI50 (HS 578T): 5.88 µM
- GI50 (A498): 4.73 µM
- GI50 (MALME-3M): 5.18 µM
- GI50 (SF-295): 4.08 µM
- GI50 (NCI-460): 3.6 µM
- GI50 (PC-3): 2.81 µM
- GI50 (NCI-H226): 6.11 µM
- GI50 (HCT-116): 0.694 µM
- GI50 (HOP-92): 4.89 µM
- GI50 (MDA-MB-468): 1.77 µM
- GI50 (UACC-257): 7.2 µM
- GI50 (SK-MEL-2 [1]): 5.32 µM
- GI50 (SR): 0.843 µM
- GI50 (OVCAR-5): 4.89 µM
- GI50 (EKVX): 5.57 µM
- GI50 (OVCAR-4): 5.12 µM
- GI50 (BT-549): 2.11 µM
- GI50 (NCI-322M): 4.68 µM
- GI50 (MDA-MB-435): 2.87 µM
- GI50 (LOX IMVI): 0.469 µM
- GI50 (NCI-H23): 3.42 µM
- GI50 (COLO 205): 5.38 µM
- GI50 (SF-539): 4.52 µM
- GI50 (CCRF-CEM): 1.55 µM
- GI50 (OVCAR-3): 1.09 µM
- GI50 (RXF393): 3.75 µM
- GI50 (UO-31): 2.43 µM
- GI50 (NCI-H522): 4.87 µM
- GI50 (UACC-62): 4.47 µM
- GI50 (SN12C): 1.87 µM
- GI50 (KM12): 1.11 µM
- GI50 (HL-60(TB)): 2.03 µM
- GI50 (NCI/ADR-RES): 8.96 µM
- GI50 (MOLT-4): 2.29 µM
- GI50 (RPMI-8226): 0.78 µM
- GI50 (HOP-62): 4.8 µM
- GI50 (SF-268): 3.05 µM
- GI50 (SK-OV-3): 7.66 µM
- GI50 (HCC-2998): 3.97 µM
- GI50 (A549/ATCC): 6.37 µM
- GI50 (MDA-MB-231/ATCC): 2.79 µM
- GI50 (SK-MEL-5): 5.55 µM
- GI50 (M14): 2.58 µM
- GI50 (TK-10): 6.63 µM
- GI50 (HCT15): 1.04 µM
- GI50 (U251): 1.22 µM
- GI50 (ACHN): 6.33 µM
- GI50 (SNB-19): 2.79 µM
- GI50 (CAKI-1): 4.43 µM
- GI50 (K-562): 1.24 µM
- GI50 (SNB-75): 3.97 µM
- GI50 (HT29): 1.09 µM
- GI50 (786-0): 1.4 µM
- GI50 (OVCAR-8): 7.99 µM
- GI50 (SW-620): 1.35 µM
- GI50 (IGROV1): 3.84 µM
- GI50 (MCF7): 0.851 µM
- GI50 (SK-MEL-2 [2]): 7.09 µM
